Results as given in US20050220912A1, “Anti-inflammatory composition for treating pelvic endometriosis” (priority 2004, published 2005).

Experiments:
[1] = Chondroitin sulfate solubility in oils; format: physicochemical; conditions: in codfish oil, corn oil and olive oil (from the flesh of the olive)
Excerpt: Parallel experiments with codfish oil, corn oil and olive oil (from the flesh of the olive) were comtemplated, but chondroitin sulfate solubility in these oils was insufficient to meet the requirements of the experiment.

[2] = commercially available chondroitin sulfate preparations (cow trachea); cited from earlier work
[3] = Effect of olive kernel extract on absorption of tritiated chondroitin sulfate in vivo (serum radioactivity after oral capsule); design: species or system male Sprague-Dawley rats; conditions: serum radioactivity at 8 hours
Protocol: Chondroitin sulfate was tritiated by New England Nuclear Corp. to a specific activity of 4.3 mCi/ml.
Unlabeled chondroitin sulfate was dissolved in olive kernel extract at a ratio of about 55 w/v chondroitin sulfate powder to about 450 w/v of olive kernel extract (2.9% acidity as oleic acid, 1.03% water, 0.08% hexane). To this solution was added 20.2 microcuries of the labeled chondroitin sulfate. AAA gelatin capsules were filled with the resulting solution using an aluminum template molding device.
The laboratory animals (250 g male Sprague-Dawley rats) were kept overnight without food but with free access to water. One capsule containg the above-described chondroitin sulfate-olive kernel extract solution was given to each rat per os. Control animals were given the equivalent amount of chondroitin, but without olive kernel extract. The animals were then given free access to food. Serum radioactivity was measured 8 hours thereafter in a beta scintillation counter.

- chondroitin sulfate solubility [1]: insufficient
- dose of labeled chondroitin sulfate that reached the circulation ([3]; control animals, per os capsule without olive kernel extract, n=3): about 3.9%+/−0.4%
- dose of labeled chondroitin sulfate absorbed into the general circulation ([3]; per os capsule, chondroitin sulfate dissolved in olive kernel extract, n=4): about 14.3%+/−0.7%
Substance: chondroitin sulfate
- Absorption from g.i. tract / absorbed orally [2]: less than 5%
